One may read the IC50 as the concentration that gives 50% inhibition. A higher IC50 goes with lower potency.

The target in this assay is T1, GCN2 (Mus musculus, UniProt Q9QZ05).
T1 construct: endogenous in cells; host or cells: Neuro 2a (N2a)
As to the kind of experiment: GCN2 inhibition cell-based assay (P-GCN2 Western blot in Neuro 2a cells). The settings on record: amino acid deprived media (DMEM lacking L-cysteine and methionine), 3 hours. In general terms: In western blotting, separated proteins are transferred to a membrane and probed.

Where only a bound is given, the exact number is not on record here.

T1 sequence (Q9QZ05 whole entry): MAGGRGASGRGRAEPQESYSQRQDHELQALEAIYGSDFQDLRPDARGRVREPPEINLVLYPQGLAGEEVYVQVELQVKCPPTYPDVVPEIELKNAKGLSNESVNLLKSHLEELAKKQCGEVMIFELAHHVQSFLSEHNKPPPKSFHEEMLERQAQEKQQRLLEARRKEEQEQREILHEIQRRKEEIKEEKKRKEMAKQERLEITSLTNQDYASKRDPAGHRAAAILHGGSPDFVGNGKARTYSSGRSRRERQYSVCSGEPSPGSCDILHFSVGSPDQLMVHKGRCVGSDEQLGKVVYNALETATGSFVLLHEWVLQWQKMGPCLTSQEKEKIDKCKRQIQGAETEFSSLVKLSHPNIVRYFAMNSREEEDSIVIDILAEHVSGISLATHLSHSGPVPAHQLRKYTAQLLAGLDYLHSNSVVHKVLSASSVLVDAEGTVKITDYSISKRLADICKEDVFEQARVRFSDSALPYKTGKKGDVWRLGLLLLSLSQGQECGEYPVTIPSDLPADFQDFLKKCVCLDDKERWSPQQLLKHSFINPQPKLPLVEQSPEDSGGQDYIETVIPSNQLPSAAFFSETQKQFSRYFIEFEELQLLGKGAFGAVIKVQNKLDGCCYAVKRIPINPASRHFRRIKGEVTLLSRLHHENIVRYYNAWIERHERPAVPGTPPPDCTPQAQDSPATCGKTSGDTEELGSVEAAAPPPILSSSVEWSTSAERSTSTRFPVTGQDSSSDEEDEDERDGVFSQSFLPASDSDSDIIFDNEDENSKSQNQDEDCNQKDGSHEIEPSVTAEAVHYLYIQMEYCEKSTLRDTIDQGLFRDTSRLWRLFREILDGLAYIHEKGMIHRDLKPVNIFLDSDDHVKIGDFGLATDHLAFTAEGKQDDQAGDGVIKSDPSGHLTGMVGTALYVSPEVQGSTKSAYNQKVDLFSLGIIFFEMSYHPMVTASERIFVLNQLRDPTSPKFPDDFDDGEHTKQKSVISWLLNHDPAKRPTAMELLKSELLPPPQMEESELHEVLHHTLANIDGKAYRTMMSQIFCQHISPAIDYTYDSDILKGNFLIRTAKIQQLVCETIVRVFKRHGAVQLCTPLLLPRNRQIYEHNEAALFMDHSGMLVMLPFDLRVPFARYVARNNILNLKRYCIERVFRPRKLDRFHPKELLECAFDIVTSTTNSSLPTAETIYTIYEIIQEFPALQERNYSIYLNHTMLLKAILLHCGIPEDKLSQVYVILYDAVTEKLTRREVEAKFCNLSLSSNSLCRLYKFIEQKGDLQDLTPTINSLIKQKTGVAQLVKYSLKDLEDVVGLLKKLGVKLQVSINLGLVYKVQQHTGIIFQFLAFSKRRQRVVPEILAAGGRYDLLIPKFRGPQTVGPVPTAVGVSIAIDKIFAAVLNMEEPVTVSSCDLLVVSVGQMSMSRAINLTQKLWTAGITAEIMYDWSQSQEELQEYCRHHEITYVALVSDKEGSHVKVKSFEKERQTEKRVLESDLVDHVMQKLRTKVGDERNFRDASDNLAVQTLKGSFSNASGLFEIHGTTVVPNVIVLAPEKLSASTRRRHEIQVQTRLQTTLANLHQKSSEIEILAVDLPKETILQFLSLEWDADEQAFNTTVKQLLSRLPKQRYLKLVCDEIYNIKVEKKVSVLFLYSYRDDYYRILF

`Nc1ncc2cc(-c3c(F)ccc(NS(=O)(=O)c4cc(Cl)ccc4Cl)c3F)ccc2n1` [Compound 2] showed an IC50 of less than 10 nM. Then `COc1ncc(Cl)cc1S(=O)(=O)Nc1ccc(F)c(-c2ccc3nc(N)ncc3c2)c1F` [Compound 1], with less than 10 nM.

The values above are taken from US12630529B2, “GCN2 modulator compounds” (ALESTA THERAPEUTICS BV, priority 2020, dated 2026).
